# In ChEMBL document CHEMBL4828751, “Discovery of novel tubulin/HDAC dual-targeting inhibitors with strong antitumor and antiangiogenic potency” (Eur J Med Chem, 2021):
# System: U-937
# Test: Antiproliferative activity against human U-937 cells assessed as cell growth inhibition after 72 hrs by CCK8 assay
# Type: functional, cell-based
# Settings: U-937, 72 h; call rule not given here
row,SMILES,IC50
1,COc1ccc(/C=C\c2cc(OC)c(OC)c(OC)c2)cc1OCC(=O)NO,> 5 µM
2,COc1ccc(/C=C\c2cc(OC)c(OC)c(OC)c2)c(/C=C/C(=O)Nc2ccccc2N)c1,3.75 µM
3,COc1ccc(/C=C\c2cc(OC)c(OC)c(OC)c2)cc1Oc1ccc(C(C)(C)C(=O)Nc2ccccc2N)cc1,> 5 µM

# Second part, the molecule after the results:
row,IC50,SMILES
1,3.22 µM,COc1ccc(/C=C\c2cc(OC)c(OC)c(OC)c2)cc1Oc1ccc(C(=O)Nc2ccccc2N)cn1
2,> 5 µM,COc1ccc(C(=O)c2cc(OC)c(OC)c(OC)c2)cc1OCCCCC(=O)Nc1ccccc1N
3,> 5 µM,COc1ccc(/C=C\c2cc(OC)c(OC)c(OC)c2)cc1OCC(=O)Nc1ccccc1N
4,0.758 µM,COc1ccc(C(=O)c2cc(OC)c(OC)c(OC)c2)cc1OCC(=O)Nc1ccccc1N

# System: A549
# Test: Antiproliferative activity against human A549 cells assessed as cell growth inhibition after 72 hrs by SRB assay
# Type: functional, cell-based
# Settings: A549, 72 h
row,SMILES,IC50
1,COc1ccc(/C=C\c2cc(OC)c(OC)c(OC)c2)cc1OCC(=O)NO,0.285 µM
2,COc1ccc(/C=C\c2cc(OC)c(OC)c(OC)c2)c(/C=C/C(=O)Nc2ccccc2N)c1,4.69 µM
3,COc1ccc(/C=C\c2cc(OC)c(OC)c(OC)c2)cc1Oc1ccc(C(C)(C)C(=O)Nc2ccccc2N)cc1,> 5 µM

# Second part, the molecule after the results:
row,IC50,SMILES
1,> 5 µM,COc1ccc(/C=C\c2cc(OC)c(OC)c(OC)c2)cc1Oc1ccc(C(=O)Nc2ccccc2N)cn1
2,> 5 µM,COc1ccc(C(=O)c2cc(OC)c(OC)c(OC)c2)cc1OCCCCC(=O)Nc1ccccc1N
3,> 5 µM,COc1ccc(/C=C\c2cc(OC)c(OC)c(OC)c2)cc1OCC(=O)Nc1ccccc1N
4,> 5 µM,COc1ccc(C(=O)c2cc(OC)c(OC)c(OC)c2)cc1OCC(=O)Nc1ccccc1N

# System: MGC-803
# Test: Antiproliferative activity against human MGC-803 cells assessed as cell growth inhibition after 72 hrs by SRB assay
# Type: functional, cell-based
# Settings: MGC-803, 72 h
row,SMILES,IC50
1,COc1ccc(/C=C\c2cc(OC)c(OC)c(OC)c2)cc1OCC(=O)NO,0.013 µM
2,COc1ccc(/C=C\c2cc(OC)c(OC)c(OC)c2)c(/C=C/C(=O)Nc2ccccc2N)c1,0.301 µM
3,COc1ccc(/C=C\c2cc(OC)c(OC)c(OC)c2)cc1Oc1ccc(C(C)(C)C(=O)Nc2ccccc2N)cc1,> 5 µM

# More lines, now with the values ahead:
row,IC50,SMILES
1,1.29 µM,COc1ccc(/C=C\c2cc(OC)c(OC)c(OC)c2)cc1Oc1ccc(C(=O)Nc2ccccc2N)cn1
2,> 5 µM,COc1ccc(C(=O)c2cc(OC)c(OC)c(OC)c2)cc1OCCCCC(=O)Nc1ccccc1N
3,> 5 µM,COc1ccc(/C=C\c2cc(OC)c(OC)c(OC)c2)cc1OCC(=O)Nc1ccccc1N
4,> 5 µM,COc1ccc(C(=O)c2cc(OC)c(OC)c(OC)c2)cc1OCC(=O)Nc1ccccc1N

# System: HepG2
# Test: Antiproliferative activity against human HepG2 cells assessed as cell growth inhibition after 72 hrs by SRB assay
# Type: functional, cell-based
# Settings: HepG2, 72 h
row,SMILES,IC50
1,COc1ccc(/C=C\c2cc(OC)c(OC)c(OC)c2)cc1OCC(=O)NO,0.122 µM
2,COc1ccc(/C=C\c2cc(OC)c(OC)c(OC)c2)c(/C=C/C(=O)Nc2ccccc2N)c1,2.76 µM
3,COc1ccc(/C=C\c2cc(OC)c(OC)c(OC)c2)cc1Oc1ccc(C(C)(C)C(=O)Nc2ccccc2N)cc1,> 5 µM

# More lines, now with the values ahead:
row,IC50,SMILES
1,4.92 µM,COc1ccc(/C=C\c2cc(OC)c(OC)c(OC)c2)cc1Oc1ccc(C(=O)Nc2ccccc2N)cn1
2,> 5 µM,COc1ccc(C(=O)c2cc(OC)c(OC)c(OC)c2)cc1OCCCCC(=O)Nc1ccccc1N
3,> 5 µM,COc1ccc(/C=C\c2cc(OC)c(OC)c(OC)c2)cc1OCC(=O)Nc1ccccc1N
4,> 5 µM,COc1ccc(C(=O)c2cc(OC)c(OC)c(OC)c2)cc1OCC(=O)Nc1ccccc1N

# System: MCF7
# Test: Antiproliferative activity against human MCF7 cells assessed as cell growth inhibition after 72 hrs by SRB assay
# Type: functional, cell-based
# Settings: MCF7, 72 h
row,SMILES,IC50
1,COc1ccc(/C=C\c2cc(OC)c(OC)c(OC)c2)cc1OCC(=O)NO,0.419 µM
2,COc1ccc(/C=C\c2cc(OC)c(OC)c(OC)c2)c(/C=C/C(=O)Nc2ccccc2N)c1,2.12 µM
3,COc1ccc(/C=C\c2cc(OC)c(OC)c(OC)c2)cc1Oc1ccc(C(C)(C)C(=O)Nc2ccccc2N)cc1,> 5 µM

# The next lines start with the values.
row,IC50,SMILES
1,2.61 µM,COc1ccc(/C=C\c2cc(OC)c(OC)c(OC)c2)cc1Oc1ccc(C(=O)Nc2ccccc2N)cn1
2,> 5 µM,COc1ccc(C(=O)c2cc(OC)c(OC)c(OC)c2)cc1OCCCCC(=O)Nc1ccccc1N
3,> 5 µM,COc1ccc(/C=C\c2cc(OC)c(OC)c(OC)c2)cc1OCC(=O)Nc1ccccc1N
4,> 5 µM,COc1ccc(C(=O)c2cc(OC)c(OC)c(OC)c2)cc1OCC(=O)Nc1ccccc1N

# System: HeLa
# Test: Antiproliferative activity against human HeLa cells assessed as cell growth inhibition after 72 hrs by SRB assay
# Type: functional, cell-based
# Settings: not given
row,SMILES,IC50
1,COc1ccc(/C=C\c2cc(OC)c(OC)c(OC)c2)cc1OCC(=O)NO,0.064 µM
2,COc1ccc(/C=C\c2cc(OC)c(OC)c(OC)c2)c(/C=C/C(=O)Nc2ccccc2N)c1,1.96 µM
3,COc1ccc(/C=C\c2cc(OC)c(OC)c(OC)c2)cc1Oc1ccc(C(C)(C)C(=O)Nc2ccccc2N)cc1,> 5 µM

# The remaining lines, values ahead:
row,IC50,SMILES
1,> 5 µM,COc1ccc(/C=C\c2cc(OC)c(OC)c(OC)c2)cc1Oc1ccc(C(=O)Nc2ccccc2N)cn1
2,> 5 µM,COc1ccc(C(=O)c2cc(OC)c(OC)c(OC)c2)cc1OCCCCC(=O)Nc1ccccc1N
3,> 5 µM,COc1ccc(/C=C\c2cc(OC)c(OC)c(OC)c2)cc1OCC(=O)Nc1ccccc1N
4,> 5 µM,COc1ccc(C(=O)c2cc(OC)c(OC)c(OC)c2)cc1OCC(=O)Nc1ccccc1N

# System: Tubulin
# Test: Inhibition of tubulin polymerization (unknown origin) measured after 1 min by fluorescence assay
# Type: protein-complex assay, Homo sapiens
# Settings: not given
row,IC50,SMILES
1,Not Active,O=C(CCCCCCC(=O)Nc1ccccc1)NO [VORINOSTAT]

# Molecular target: Histone deacetylase 1 (Homo sapiens, UniProt Q13547)
# Sequence (Q13547 whole entry): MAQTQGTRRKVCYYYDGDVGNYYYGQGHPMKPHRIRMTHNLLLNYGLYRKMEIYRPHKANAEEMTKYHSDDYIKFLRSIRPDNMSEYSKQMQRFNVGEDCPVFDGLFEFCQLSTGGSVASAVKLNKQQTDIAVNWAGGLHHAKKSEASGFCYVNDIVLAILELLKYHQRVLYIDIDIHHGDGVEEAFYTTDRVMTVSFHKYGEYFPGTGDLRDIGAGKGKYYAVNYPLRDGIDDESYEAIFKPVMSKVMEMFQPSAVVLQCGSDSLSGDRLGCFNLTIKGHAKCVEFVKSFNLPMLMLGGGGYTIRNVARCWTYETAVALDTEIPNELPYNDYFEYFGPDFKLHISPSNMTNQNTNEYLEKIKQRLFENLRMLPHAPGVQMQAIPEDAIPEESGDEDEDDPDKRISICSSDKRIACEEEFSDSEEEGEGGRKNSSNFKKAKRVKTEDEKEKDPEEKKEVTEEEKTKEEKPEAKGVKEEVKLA
# Test: Inhibition of HDAC1 (unknown origin)
# Settings: not given
row,IC50,SMILES
1,Not Active,O=C(NCC1(c2nc(-c3ccccc3)cs2)CCOCC1)c1cccc(-c2noc(C(F)(F)F)n2)c1

# Molecular target: Histone deacetylase 2 (Homo sapiens, UniProt Q92769)
# Sequence (Q92769 whole entry): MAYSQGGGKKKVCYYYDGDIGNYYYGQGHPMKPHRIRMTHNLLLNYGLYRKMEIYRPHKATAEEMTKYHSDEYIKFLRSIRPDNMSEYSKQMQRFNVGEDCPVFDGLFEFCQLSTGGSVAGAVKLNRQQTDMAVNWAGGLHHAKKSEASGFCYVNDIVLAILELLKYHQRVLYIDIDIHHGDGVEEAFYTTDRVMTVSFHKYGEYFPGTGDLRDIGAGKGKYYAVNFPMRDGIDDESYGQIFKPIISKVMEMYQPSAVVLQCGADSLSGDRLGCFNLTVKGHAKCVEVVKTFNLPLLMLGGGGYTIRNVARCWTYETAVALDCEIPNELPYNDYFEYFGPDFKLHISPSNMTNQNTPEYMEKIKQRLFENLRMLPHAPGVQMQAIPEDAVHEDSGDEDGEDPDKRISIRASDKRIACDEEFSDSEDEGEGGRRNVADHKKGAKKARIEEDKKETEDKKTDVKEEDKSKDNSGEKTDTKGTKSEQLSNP
# Test: Inhibition of HDAC2 (unknown origin)
# Settings: not given
row,IC50,SMILES
1,Not Active,O=C(NCC1(c2nc(-c3ccccc3)cs2)CCOCC1)c1cccc(-c2noc(C(F)(F)F)n2)c1

# Molecular target: Histone deacetylase 3 (Homo sapiens, UniProt O15379)
# Sequence (O15379 whole entry): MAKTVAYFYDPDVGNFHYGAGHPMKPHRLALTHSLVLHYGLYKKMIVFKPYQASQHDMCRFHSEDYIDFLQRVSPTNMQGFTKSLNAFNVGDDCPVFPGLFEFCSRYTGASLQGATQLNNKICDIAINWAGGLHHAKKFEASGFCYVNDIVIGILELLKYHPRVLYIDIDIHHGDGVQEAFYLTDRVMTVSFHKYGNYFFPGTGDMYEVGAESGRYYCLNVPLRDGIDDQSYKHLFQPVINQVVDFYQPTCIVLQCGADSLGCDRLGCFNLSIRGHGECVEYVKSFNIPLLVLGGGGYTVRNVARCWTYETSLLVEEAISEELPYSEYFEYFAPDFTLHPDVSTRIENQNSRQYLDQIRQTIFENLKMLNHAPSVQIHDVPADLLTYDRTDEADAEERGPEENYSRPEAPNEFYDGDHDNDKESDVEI
# Test: Inhibition of HDAC3 (unknown origin)
# Settings: not given
row,IC50,SMILES
1,Not Active,O=C(NCC1(c2nc(-c3ccccc3)cs2)CCOCC1)c1cccc(-c2noc(C(F)(F)F)n2)c1

# Molecular target: T1, Histone deacetylase 8 (Homo sapiens, UniProt Q9BY41)
# T1 sequence (Q9BY41 whole entry): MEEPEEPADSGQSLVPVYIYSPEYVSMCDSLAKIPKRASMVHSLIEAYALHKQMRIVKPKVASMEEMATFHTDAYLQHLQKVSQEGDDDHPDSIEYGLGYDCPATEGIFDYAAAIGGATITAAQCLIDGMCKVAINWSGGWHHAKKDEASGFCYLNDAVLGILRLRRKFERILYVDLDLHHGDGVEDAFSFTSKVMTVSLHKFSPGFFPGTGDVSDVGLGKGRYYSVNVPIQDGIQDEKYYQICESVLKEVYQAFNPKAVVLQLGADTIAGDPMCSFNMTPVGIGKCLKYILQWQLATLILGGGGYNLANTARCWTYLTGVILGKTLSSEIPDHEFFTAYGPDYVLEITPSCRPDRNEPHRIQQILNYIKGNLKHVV
# Test: Inhibition of HDAC8 (unknown origin)
# Settings: not given
row,IC50,SMILES
1,Not Active,O=C(NCC1(c2nc(-c3ccccc3)cs2)CCOCC1)c1cccc(-c2noc(C(F)(F)F)n2)c1

# Molecular target: T2, Histone deacetylase 11 (Homo sapiens, UniProt Q96DB2)
# T2 sequence (Q96DB2 whole entry): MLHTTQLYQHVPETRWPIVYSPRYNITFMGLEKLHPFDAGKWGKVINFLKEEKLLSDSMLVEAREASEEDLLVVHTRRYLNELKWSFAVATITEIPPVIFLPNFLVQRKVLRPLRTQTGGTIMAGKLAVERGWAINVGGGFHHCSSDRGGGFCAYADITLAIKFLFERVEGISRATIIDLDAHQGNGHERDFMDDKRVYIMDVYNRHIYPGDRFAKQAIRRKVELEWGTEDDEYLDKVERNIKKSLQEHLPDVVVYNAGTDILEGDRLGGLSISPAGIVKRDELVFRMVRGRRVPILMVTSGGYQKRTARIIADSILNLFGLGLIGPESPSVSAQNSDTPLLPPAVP
# Test: Inhibition of HDAC11 (unknown origin)
# Settings: not given
row,IC50,SMILES
1,Not Active,O=C(NCC1(c2nc(-c3ccccc3)cs2)CCOCC1)c1cccc(-c2noc(C(F)(F)F)n2)c1
